ChEMBL document CHEMBL1201862, “PubChem BioAssay data set” (2004)
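These data come from cells grown in 96-well plates and exposed to compound for 48 hours at five concentrations. Abbreviation: GI50, concentration required for 50% inhibition of growth.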 Activity calls are given as the source filed them. Cut-off read from the data, not from the text of the source: active = GI50 up to about 1.1 µM and inactive = higher.

Columns and labels:
Assay in all cases: NCI anticancer screen, dose series, 48 h
HOP-18 = test system: HOP-18
SNB-78 = test system: SNB-78
DLD-1 = test system: DLD-1
LXFL 529 = test system: LXFL 529
KM-20L2 = test system: KM-20L2
XF498 = test system: XF498
M19-MEL = test system: M19-MEL
DMS-273 = test system: DMS-273
RXF 631 = test system: RXF 631

Measured: GI50

O=c1[nH]cnc2c1nnn2C1C=C(CO)C(O)C1O (stereo not drawn)
inactive: HOP-18 > 100 µM | SNB-78 > 100 µM | DLD-1 > 100 µM | LXFL 529 > 100 µM | KM-20L2 > 100 µM | XF498 > 100 µM | M19-MEL > 100 µM | DMS-273 23.5 µM

C[C@@H]1CC[C@@]2(C)OC(c3ccccc3)[C@H](CO)N2C1=O (stereo partly drawn)
inactive: HOP-18 > 100 µM | SNB-78 > 100 µM | DLD-1 > 100 µM | KM-20L2 > 100 µM | XF498 > 100 µM | M19-MEL > 100 µM | DMS-273 > 100 µM

O=c1ncccn1[C@@H]1O[C@H](CO)[C@@H](O)[C@@H]1F
inactive: HOP-18 > 100 µM | SNB-78 > 100 µM | LXFL 529 > 100 µM | RXF 631 > 51.6 µM | KM-20L2 > 100 µM | XF498 > 100 µM | M19-MEL > 100 µM | DMS-273 > 100 µM

COc1cc2c(cc1OC)[C@H]1C(COC(=O)c3ccccc3)CS/C(=N/c3ccccc3)N1CC2 (stereo partly drawn)
inactive: HOP-18 > 100 µM | SNB-78 27 µM | DLD-1 > 100 µM | LXFL 529 24.4 µM | KM-20L2 76 µM | XF498 > 100 µM | M19-MEL > 100 µM | DMS-273 74 µM

C=CC1(C(=O)O)CCC(C(C)(C)C)CC1 (stereo not drawn)
inactive: HOP-18 > 100 µM | SNB-78 > 100 µM | DLD-1 > 100 µM | LXFL 529 > 100 µM | RXF 631 > 100 µM | KM-20L2 > 100 µM | XF498 > 100 µM | M19-MEL > 100 µM | DMS-273 > 100 µM

CCCC(=O)c1c(NOC2OC(COC(C)=O)C(OC(C)=O)C(OC(C)=O)C2OC(C)=O)nc(OC)n(C)c1=O (stereo not drawn)
inactive: SNB-78 > 100 µM | DLD-1 > 100 µM | LXFL 529 > 100 µM | KM-20L2 > 100 µM | XF498 > 100 µM | M19-MEL > 100 µM | DMS-273 > 100 µM

COc1cc2c(Cc3cc(OCc4ccccc4)ccc3N)nccc2c(OC)c1OC
inactive: HOP-18 > 10 µM | SNB-78 > 10 µM | DLD-1 > 10 µM | LXFL 529 > 10 µM | RXF 631 6.55 µM | KM-20L2 > 10 µM | XF498 > 10 µM | M19-MEL > 10 µM | DMS-273 > 10 µM

COc1cc(/C=C2\NC(=S)C3Cc4c(OC)c(C)c(OC)c(OC)c4C2N3C)c(OC)c(C)c1OC (stereo not drawn)
inactive: HOP-18 27.8 µM | DLD-1 51.1 µM | LXFL 529 28.8 µM | KM-20L2 64 µM | M19-MEL 45.6 µM | DMS-273 46.9 µM

Cc1cc2c(c(C#N)c1C)NC(=O)CCC2=O
inactive: SNB-78 > 100 µM | DLD-1 > 100 µM | LXFL 529 > 100 µM | RXF 631 > 100 µM | KM-20L2 > 100 µM | XF498 > 100 µM | M19-MEL > 100 µM | DMS-273 > 100 µM

N#CC(c1ccccc1)c1nc2ccc(N)cc2[n+]([O-])c1C(C#N)c1ccccc1 (stereo not drawn)
inactive: HOP-18 > 100 µM | SNB-78 > 100 µM | DLD-1 43.6 µM | LXFL 529 51.1 µM | RXF 631 86.9 µM | KM-20L2 75.3 µM | XF498 48.5 µM | M19-MEL 55.1 µM | DMS-273 45.9 µM

C[C@@H]1C[C@@H]2C(=O)N(c3ccccc3)C(=O)[C@@H]2c2[nH]c3ccc(Br)cc3c21
inactive: HOP-18 24.1 µM | SNB-78 25.1 µM | DLD-1 44.2 µM | LXFL 529 37.6 µM | RXF 631 28.8 µM | KM-20L2 > 100 µM | XF498 26.1 µM | M19-MEL 70.8 µM | DMS-273 > 100 µM

COc1ccc(C(=O)O/N=C2/CCCCC2CN(C)C)cc1 (stereo not drawn)
inactive: HOP-18 > 100 µM | SNB-78 > 100 µM | DLD-1 > 100 µM | LXFL 529 > 100 µM | RXF 631 > 100 µM | KM-20L2 > 100 µM | M19-MEL > 100 µM | DMS-273 > 100 µM

COc1cc(-c2cc(=O)c3cc(C)c(C)c(C(=O)O)c3o2)cc(OC)c1OC
inactive: SNB-78 > 100 µM | DLD-1 > 100 µM | LXFL 529 > 100 µM | RXF 631 > 100 µM | KM-20L2 > 100 µM | XF498 > 100 µM | M19-MEL > 100 µM | DMS-273 > 100 µM

NC(=O)/C(=N\NC(=O)C[n+]1ccccc1)C1NC(=O)NC1=O (stereo not drawn)
inactive: HOP-18 > 100 µM | SNB-78 > 100 µM | DLD-1 > 100 µM | LXFL 529 > 100 µM | RXF 631 > 100 µM | KM-20L2 > 100 µM | XF498 > 100 µM | M19-MEL > 100 µM | DMS-273 > 100 µM

CC(=O)OCC12CC(CC1OC(C)=O)c1ccccc12 (stereo not drawn)
inactive: HOP-18 > 100 µM | LXFL 529 > 100 µM | RXF 631 > 100 µM | KM-20L2 > 100 µM | M19-MEL > 100 µM | DMS-273 > 100 µM

CCOC(=O)C(C(=O)c1ccccc1-c1ccccc1C(=O)O)=P(c1ccccc1)(c1ccccc1)c1ccccc1
inactive: LXFL 529 24.9 µM | RXF 631 37.8 µM | KM-20L2 21 µM | XF498 23.3 µM | M19-MEL 27.8 µM | DMS-273 31.8 µM

O=C(O)CCCc1ccc(N(CCCl)CCCl)cc1 [CHLORAMBUCIL]
inactive: HOP-18 > 81.1 µM | DLD-1 104 µM | LXFL 529 95.5 µM | RXF 631 86.9 µM | KM-20L2 132 µM | XF498 55.1 µM | M19-MEL 87.7 µM | DMS-273 23.7 µM

CC1C(c2ccccc2)=CCON1c1ccccc1 (stereo not drawn)
inactive: SNB-78 > 100 µM | DLD-1 > 100 µM | LXFL 529 > 100 µM | KM-20L2 > 100 µM | XF498 > 100 µM | M19-MEL > 100 µM

CCCCN(CC)CC(C(C)=O)c1c(O)c2ccccc2oc1=O (stereo not drawn)
inactive: HOP-18 > 100 µM | SNB-78 > 100 µM | DLD-1 > 100 µM | LXFL 529 > 100 µM | KM-20L2 > 100 µM | XF498 > 100 µM | M19-MEL > 100 µM | DMS-273 > 100 µM

S=c1sc2c(Cl)ncnc2n1-c1ccccc1
inactive: HOP-18 19 µM | SNB-78 10.5 µM | DLD-1 11.5 µM | LXFL 529 12.4 µM | KM-20L2 19.1 µM | XF498 15.2 µM | M19-MEL 3.8 µM | DMS-273 1.51 µM

COc1ccccc1/C=N/C12CC3CC(CC(C3)C1)C2
inactive: KM-20L2 > 100 µM | M19-MEL > 100 µM | DMS-273 > 100 µM

C1=Cc2nc1c(-c1ccncc1)c1ccc([n-]1)c(-c1ccncc1)c1nc(c(-c3ccncc3)c3ccc([n-]3)c2-c2ccncc2)C=C1.[Zn+2]
inactive: SNB-78 > 100 µM | DLD-1 > 100 µM | LXFL 529 > 100 µM | RXF 631 > 100 µM | KM-20L2 > 100 µM | XF498 > 100 µM | M19-MEL > 100 µM

CCOC(=O)C(Cc1cn(S(=O)(=O)c2ccccc2)c2ccccc12)(NC(C)=O)C(=O)OCC
inactive: DLD-1 40.1 µM | LXFL 529 27.7 µM | KM-20L2 46.6 µM | XF498 29.7 µM | M19-MEL 40.7 µM | DMS-273 35 µM

CC(=O)O[C@H]1CCC2[C@@H]3CCC4=C(O)c5nocc5C[C@]4(C)C3CC[C@@]21C (stereo partly drawn)
inactive: HOP-18 > 100 µM | SNB-78 > 100 µM | LXFL 529 > 100 µM | KM-20L2 > 100 µM | XF498 > 100 µM | M19-MEL > 100 µM | DMS-273 > 100 µM
